Data taken from paper PMC9898036, “VIP152 is a selective CDK9 inhibitor with pre-clinical in vitro and in vivo efficacy in chronic lymphocytic leukemia” (Leukemia, 2022).

Legend:
PFPK5(P.falciparum) = PFPK5(P.falciparum) (Plasmodium falciparum, UniProt P61075); assay: DiscoverX KINOMEscan kinase profiling: PFPK5(P.falciparum); type: binding; details: PFPK5(P.falciparum) (Entrez MAL13P1.279); 100 nM; read-out: Percent Control
ALK = ALK (Homo sapiens, UniProt Q9UM73); assay: KINOMEscan: ALK; type: binding; details: 1000 nM, read-out: Percent Control
MAP3K1 = MAP3K1 (Homo sapiens, UniProt Q13233); assay: KINOMEscan: MAP3K1; type: binding; details: 1000 nM, read-out: Percent Control
EPHA5 = EPHA5 (Homo sapiens, UniProt P54756); assay: KINOMEscan: EPHA5; type: binding; details: 1000 nM, read-out: Percent Control
Muscarinic M2 = Muscarinic M2 (Homo sapiens, UniProt P08172); assay: Eurofins Diversity Panel; type: binding; details: hum, Conc. 10 μM
HIPK4 = HIPK4 (Homo sapiens, UniProt Q8NE63); assay: KINOMEscan: HIPK4; type: binding; details: 1000 nM, read-out: Percent Control
FRK = FRK (Homo sapiens, UniProt P42685); assay: KINOMEscan: FRK; type: binding; details: 1000 nM, read-out: Percent Control
EPHA7 = EPHA7 (Homo sapiens, UniProt Q15375); assay: KINOMEscan: EPHA7; type: binding; details: 1000 nM, read-out: Percent Control
MEK1 = MEK1 (Homo sapiens, UniProt Q02750); assay: KINOMEscan: MEK1; type: binding; details: 1000 nM, read-out: Percent Control
CLL patient samples = assay: Western blot of CLL patient samples; type: cell-based, human; details: 1 µM, 8 h
Procedure: Lysate concentration was quantified using Pierce™ BCA Protein Assay Kit (ThermoFiser Scientific – cat. 23225) and proteins were analyzed via immunoblot. A full list of antibodies may be found in the supplementary methods section. All images are representative of three independent experiments.
P-TEFb’s role in regulating transcription through POLII CTD phosphorylation is a canonical function of this complex. To interrogate the transcriptional changes associated with VIP152 treatment, we treated B-cells, isolated from four patients with treatment-naïve CLL, with 1 µM VIP152 or DMSO for two hours followed by fluorescence-assisted cell sorting for 500 live (Sytox^−), CD45^+/CD5^+/CD19^+ cells (Fig. 3A). Our group has previously defined an analysis pipeline, named CLEAR, which identifies evenly distributed reads for differentially expressed gene (DEG) analysis. […] When we looked at the expression of these differentially abundant genes via an unsupervised clustered heatmap, we noted that there was high concordance between the patient samples with clustering dependent on treatment group (Fig. 3C). The treatment did induce decreased transcript abundance of genes previously reported to be controlled by CDK9 activity, namely JUNB, BTG1, and MCL1 [45, 46]. Downregulation of the anti-apoptotic MCL1 (LFC: −1.231056 & p-value = 0.02) likely contributes to the susceptibility of primary CLL cells to apoptosis (Fig. 2F, G). […] It has been established that AU-rich element (ARE) mRNA molecules are under tight temporal regulation and control a variety of cellular processes. Moreover, the relationship between P-TEFb mediated transcription and ARE-bearing mRNA has previously been described. […] We appreciate from our limiting-cell RNA sequencing experiments that the loss of tristetrapolin (ZFP36) transcripts (LFC: −4.02; adjusted p-value: 7.97*10^−40) and the upregulation of ribosomal transcripts, likely correspond to a possible compensatory mechanism by which these cells attempt to improve translational output and maximize transcript maintenance in response to VIP152-induced transcriptional shutdown. […] We looked at transcripts which had been shown by photoactivatable ribonucleoside cross-linking and immunoprecipitation (PAR-CLIP) to interact with ZFP36 [50]. […]
Fig. 3 VIP152 induces rapid transcriptomic changes. […] E–G 7 CLL patient samples were treated for 8 h with 1 µM VIP152 and then analyzed for protein expression by western blot (E, F) and ZFP36, ZFP36L1, and ZFP36L2 expression by qRT-PCR (G). H–L 5 CLL patient samples were treated for 8 h with 1 µM VIP152 and then supplemented with 500 nM Actinomycin-D. RNA was taken at varying timepoints and analyzed via qRT-PCR. M mRNA half-lives of analyzed transcripts in (H–L) as determined by nonlinear regression using a one-phase decay method.

EPHB2 = EPHB2 (Homo sapiens, UniProt P29323); assay: KINOMEscan: EPHB2; type: binding; details: 1000 nM, read-out: Percent Control
GAK = GAK (Homo sapiens, UniProt O14976); assay: KINOMEscan: GAK; type: binding; details: 1000 nM, read-out: Percent Control
MKNK2 = MKNK2 (Homo sapiens, UniProt Q9HBH9); assay: KINOMEscan: MKNK2; type: binding; details: 1000 nM, read-out: Percent Control
Glutamate, Kainate = assay: Eurofins Diversity Panel; type: binding; details: rat, Conc. 10 μM
SRC = SRC (Homo sapiens, UniProt P12931); assay: KINOMEscan: SRC; type: binding; details: 100 nM, read-out: Percent Control
MAP3K4 = MAP3K4 (Homo sapiens, UniProt Q9Y6R4); assay: KINOMEscan: MAP3K4; type: binding; details: 1000 nM, read-out: Percent Control
CDKL3 = CDKL3 (Homo sapiens, UniProt Q8IVW4); assay: KINOMEscan: CDKL3; type: binding; details: 1000 nM, read-out: Percent Control
MAK = MAK (Homo sapiens, UniProt P20794); assay: KINOMEscan: MAK; type: binding; details: 1000 nM, read-out: Percent Control
LRRK2(G2019S) = LRRK2(G2019S) (Homo sapiens, UniProt Q5S007, G2019S); assay: KINOMEscan: LRRK2(G2019S); type: binding; details: 1000 nM, read-out: Percent Control
TRKC = TRKC (Homo sapiens, UniProt Q16288); assay: KINOMEscan: TRKC; type: binding; details: 100 nM, read-out: Percent Control
HASPIN = HASPIN (Homo sapiens, UniProt Q8TF76); assay: KINOMEscan: HASPIN; type: binding; details: 1000 nM, read-out: Percent Control

Chain of MKNK2 (Q9HBH9 whole entry): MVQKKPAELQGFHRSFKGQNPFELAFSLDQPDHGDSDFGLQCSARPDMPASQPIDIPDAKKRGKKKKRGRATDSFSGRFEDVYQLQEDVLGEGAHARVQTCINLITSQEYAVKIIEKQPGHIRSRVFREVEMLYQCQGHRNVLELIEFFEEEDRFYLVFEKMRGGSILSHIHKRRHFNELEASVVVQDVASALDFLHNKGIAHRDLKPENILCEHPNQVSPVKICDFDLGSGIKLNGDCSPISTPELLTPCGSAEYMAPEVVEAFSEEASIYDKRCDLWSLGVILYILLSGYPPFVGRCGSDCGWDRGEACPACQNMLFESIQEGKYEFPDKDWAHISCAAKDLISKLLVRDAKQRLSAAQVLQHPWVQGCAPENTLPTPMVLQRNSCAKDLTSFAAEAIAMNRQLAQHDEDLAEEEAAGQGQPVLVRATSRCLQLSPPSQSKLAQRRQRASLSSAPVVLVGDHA
Chain of ALK (Q9UM73 19-1620): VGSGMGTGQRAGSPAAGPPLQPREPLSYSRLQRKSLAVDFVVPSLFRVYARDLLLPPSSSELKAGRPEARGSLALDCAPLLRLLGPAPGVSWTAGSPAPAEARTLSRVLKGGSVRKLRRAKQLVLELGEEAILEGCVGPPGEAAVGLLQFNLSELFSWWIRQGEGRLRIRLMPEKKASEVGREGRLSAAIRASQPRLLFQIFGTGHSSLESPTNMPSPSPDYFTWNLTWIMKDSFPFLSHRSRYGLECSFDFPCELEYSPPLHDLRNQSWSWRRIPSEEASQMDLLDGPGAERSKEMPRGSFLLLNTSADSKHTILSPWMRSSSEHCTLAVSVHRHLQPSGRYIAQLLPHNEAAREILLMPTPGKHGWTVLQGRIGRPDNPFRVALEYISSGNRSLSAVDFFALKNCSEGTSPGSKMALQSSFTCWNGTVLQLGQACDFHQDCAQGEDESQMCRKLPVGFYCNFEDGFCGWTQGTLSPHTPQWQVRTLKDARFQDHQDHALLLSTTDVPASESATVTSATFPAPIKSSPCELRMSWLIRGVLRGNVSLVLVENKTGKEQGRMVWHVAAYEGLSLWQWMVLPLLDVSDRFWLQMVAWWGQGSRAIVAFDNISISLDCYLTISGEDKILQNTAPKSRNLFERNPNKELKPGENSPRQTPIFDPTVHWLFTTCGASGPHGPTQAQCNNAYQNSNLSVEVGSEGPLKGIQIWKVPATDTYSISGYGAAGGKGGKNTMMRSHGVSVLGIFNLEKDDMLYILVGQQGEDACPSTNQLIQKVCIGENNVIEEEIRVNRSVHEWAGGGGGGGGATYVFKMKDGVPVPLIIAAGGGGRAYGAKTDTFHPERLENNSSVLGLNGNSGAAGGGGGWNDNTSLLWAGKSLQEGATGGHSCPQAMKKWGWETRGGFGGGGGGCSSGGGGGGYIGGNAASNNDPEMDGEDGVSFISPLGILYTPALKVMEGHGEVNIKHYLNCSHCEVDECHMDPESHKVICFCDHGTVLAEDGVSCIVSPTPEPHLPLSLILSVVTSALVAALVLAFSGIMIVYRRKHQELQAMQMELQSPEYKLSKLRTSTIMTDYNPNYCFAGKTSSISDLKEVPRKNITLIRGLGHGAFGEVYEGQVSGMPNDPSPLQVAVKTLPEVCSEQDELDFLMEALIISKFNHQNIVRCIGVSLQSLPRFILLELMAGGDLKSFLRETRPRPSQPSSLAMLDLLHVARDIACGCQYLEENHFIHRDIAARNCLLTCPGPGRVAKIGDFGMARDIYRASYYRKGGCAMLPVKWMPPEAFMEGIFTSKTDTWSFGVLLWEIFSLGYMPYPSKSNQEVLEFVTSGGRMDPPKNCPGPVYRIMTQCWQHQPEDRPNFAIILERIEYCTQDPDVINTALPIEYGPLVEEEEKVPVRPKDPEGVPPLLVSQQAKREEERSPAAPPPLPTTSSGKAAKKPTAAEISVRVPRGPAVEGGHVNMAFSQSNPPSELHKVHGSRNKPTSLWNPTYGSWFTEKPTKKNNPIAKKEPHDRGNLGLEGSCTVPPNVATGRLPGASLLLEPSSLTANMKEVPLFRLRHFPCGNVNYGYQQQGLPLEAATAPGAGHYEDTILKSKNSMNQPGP
Chain of SRC (P12931 whole entry): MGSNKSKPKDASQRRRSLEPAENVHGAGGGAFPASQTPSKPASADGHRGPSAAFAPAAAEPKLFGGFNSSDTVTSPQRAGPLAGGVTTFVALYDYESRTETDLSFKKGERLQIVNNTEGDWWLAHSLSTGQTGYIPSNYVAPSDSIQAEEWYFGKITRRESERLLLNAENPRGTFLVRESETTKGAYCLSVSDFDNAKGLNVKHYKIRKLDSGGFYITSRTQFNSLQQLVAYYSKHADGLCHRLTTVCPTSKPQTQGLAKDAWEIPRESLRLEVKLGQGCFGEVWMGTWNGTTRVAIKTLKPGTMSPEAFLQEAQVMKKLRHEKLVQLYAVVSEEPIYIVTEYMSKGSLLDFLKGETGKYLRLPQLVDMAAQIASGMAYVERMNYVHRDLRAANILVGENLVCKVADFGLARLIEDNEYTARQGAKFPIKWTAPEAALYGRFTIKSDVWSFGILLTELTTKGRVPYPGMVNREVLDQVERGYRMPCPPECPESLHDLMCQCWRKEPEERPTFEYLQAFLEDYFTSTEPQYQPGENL
Chain of MEK1 (Q02750 whole entry): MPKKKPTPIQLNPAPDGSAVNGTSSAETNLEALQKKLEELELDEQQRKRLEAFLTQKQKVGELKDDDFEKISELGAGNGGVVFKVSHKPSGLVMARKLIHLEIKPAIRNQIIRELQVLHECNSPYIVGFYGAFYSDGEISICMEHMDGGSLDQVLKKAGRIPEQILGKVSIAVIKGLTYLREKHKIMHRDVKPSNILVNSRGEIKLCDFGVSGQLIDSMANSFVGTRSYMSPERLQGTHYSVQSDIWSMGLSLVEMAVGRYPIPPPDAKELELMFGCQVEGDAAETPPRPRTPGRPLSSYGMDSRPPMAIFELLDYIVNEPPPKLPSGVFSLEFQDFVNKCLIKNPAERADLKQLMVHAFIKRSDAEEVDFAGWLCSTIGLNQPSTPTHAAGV
Chain of EPHA7 (Q15375 28-998): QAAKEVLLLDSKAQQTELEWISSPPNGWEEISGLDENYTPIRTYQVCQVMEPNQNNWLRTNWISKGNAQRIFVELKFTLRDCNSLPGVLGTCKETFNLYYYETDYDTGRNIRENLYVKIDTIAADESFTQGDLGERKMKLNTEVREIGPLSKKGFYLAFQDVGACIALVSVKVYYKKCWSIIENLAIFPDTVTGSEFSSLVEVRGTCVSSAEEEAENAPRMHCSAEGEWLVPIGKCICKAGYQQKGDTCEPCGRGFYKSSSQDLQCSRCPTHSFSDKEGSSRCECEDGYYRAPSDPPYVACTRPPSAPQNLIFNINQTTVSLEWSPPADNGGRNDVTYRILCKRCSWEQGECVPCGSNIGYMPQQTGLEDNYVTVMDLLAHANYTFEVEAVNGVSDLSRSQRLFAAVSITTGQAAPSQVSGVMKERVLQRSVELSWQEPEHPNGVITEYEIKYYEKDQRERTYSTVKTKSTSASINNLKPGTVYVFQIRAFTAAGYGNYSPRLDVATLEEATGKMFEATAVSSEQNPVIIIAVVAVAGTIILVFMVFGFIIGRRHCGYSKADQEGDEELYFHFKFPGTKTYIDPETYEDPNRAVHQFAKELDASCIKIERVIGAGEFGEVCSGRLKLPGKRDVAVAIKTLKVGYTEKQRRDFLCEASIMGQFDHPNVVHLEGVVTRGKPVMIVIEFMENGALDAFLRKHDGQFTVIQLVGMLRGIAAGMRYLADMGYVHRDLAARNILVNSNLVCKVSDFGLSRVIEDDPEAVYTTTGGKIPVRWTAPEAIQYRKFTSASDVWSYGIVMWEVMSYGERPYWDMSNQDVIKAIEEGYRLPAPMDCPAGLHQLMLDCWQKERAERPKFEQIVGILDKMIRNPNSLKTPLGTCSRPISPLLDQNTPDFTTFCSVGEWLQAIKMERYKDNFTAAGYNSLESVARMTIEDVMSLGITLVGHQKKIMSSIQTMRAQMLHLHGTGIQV
Chain of EPHB2 (P29323 19-1055): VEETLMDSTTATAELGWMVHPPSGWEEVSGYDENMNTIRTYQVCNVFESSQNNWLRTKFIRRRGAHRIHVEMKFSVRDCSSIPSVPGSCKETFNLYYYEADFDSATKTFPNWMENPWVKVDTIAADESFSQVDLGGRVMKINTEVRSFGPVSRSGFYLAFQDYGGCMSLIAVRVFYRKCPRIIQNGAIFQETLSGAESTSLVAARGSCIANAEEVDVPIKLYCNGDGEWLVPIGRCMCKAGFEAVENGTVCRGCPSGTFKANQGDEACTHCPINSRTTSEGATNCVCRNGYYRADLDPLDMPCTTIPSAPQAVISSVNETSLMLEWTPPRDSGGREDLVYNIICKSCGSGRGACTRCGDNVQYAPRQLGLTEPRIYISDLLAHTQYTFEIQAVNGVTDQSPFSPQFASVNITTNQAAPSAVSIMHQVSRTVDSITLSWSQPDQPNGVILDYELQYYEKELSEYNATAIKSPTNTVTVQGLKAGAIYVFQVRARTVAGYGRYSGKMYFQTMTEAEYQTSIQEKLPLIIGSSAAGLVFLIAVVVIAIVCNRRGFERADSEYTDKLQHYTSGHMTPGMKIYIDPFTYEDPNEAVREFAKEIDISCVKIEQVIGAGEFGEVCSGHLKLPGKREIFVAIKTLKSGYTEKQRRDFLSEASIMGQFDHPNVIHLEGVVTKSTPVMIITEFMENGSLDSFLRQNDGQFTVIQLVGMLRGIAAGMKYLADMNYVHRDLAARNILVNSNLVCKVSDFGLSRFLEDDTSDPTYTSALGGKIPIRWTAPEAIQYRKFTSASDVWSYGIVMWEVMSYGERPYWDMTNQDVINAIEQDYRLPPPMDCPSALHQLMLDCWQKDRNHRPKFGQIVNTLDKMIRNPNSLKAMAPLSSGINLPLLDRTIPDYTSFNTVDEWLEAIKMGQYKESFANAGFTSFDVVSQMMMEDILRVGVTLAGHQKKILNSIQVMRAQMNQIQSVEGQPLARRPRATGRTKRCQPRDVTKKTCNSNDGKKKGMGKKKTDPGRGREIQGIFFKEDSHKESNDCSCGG

How did the remaining binding at 0.1 µM (PFPK5(P.falciparum)) turn out when `COc1cc(F)ccc1-c1cc(Nc2cc(CS(C)(=N)=O)ccn2)ncc1F` (stereo not drawn) [VIP152] was run?
The remaining binding at 0.1 µM was 100%.

What about the remaining binding at 1 µM (ALK) of the same molecule?
The remaining binding at 1 µM was 92%.

What about the remaining binding at 1 µM (MAP3K1) of the same molecule?
Its remaining binding at 1 µM is 78%.

And the remaining binding at 1 µM (EPHA5)?
Its remaining binding at 1 µM is 88%.

What about the inhibition at 10 µM (Muscarinic M2) of the same molecule?
The inhibition at 10 µM was -5%.

And the remaining binding at 1 µM (HIPK4)?
The remaining binding at 1 µM was 68%.

What about the remaining binding at 1 µM (FRK) of the same molecule?
Its remaining binding at 1 µM is 47%.

And the remaining binding at 1 µM (EPHA7)?
Its remaining binding at 1 µM is 100%.

And the remaining binding at 1 µM (MEK1)?
The remaining binding at 1 µM was 85%.

What about the BTG1 protein (CLL patient samples) of the same molecule?
The BTG1 protein was “not”.

And the JUNB protein (CLL patient samples)?
Its JUNB protein is “decrease”.

And the MCL1 protein (CLL patient samples)?
The MCL1 protein was “decrease”.

What about the “expression of tristetrapolin (ZFP36)” value (CLL patient samples; seven CLL patient samples) of the same molecule?
Its value is “decreased expression”.

What about the remaining binding at 1 µM (EPHB2) of the same molecule?
The remaining binding at 1 µM was 92%.

And the remaining binding at 1 µM (GAK)?
Its remaining binding at 1 µM is 82%.

And the remaining binding at 1 µM (MKNK2)?
The remaining binding at 1 µM was 96%.

What about the “% Inh.” value (Glutamate, Kainate) of the same molecule?
Its value is 13%.

What about the remaining binding at 0.1 µM (SRC) of the same molecule?
The remaining binding at 0.1 µM was 100%.

And the remaining binding at 1 µM (MAP3K4)?
Its remaining binding at 1 µM is 82%.

What about the remaining binding at 1 µM (CDKL3) of the same molecule?
Its remaining binding at 1 µM is 53%.

What about the remaining binding at 1 µM (MAK) of the same molecule?
The remaining binding at 1 µM was 84%.

What about the remaining binding at 1 µM (LRRK2(G2019S)) of the same molecule?
The remaining binding at 1 µM was 86%.

And the remaining binding at 0.1 µM (TRKC)?
The remaining binding at 0.1 µM was 83%.

What about the remaining binding at 1 µM (HASPIN) of the same molecule?
The remaining binding at 1 µM was 99%.
